Experimental data reported in article PMC5650741 (ACS infectious diseases, 2017).

Molecular target: T1, E. coli DXP synthase (DXPS) (Escherichia coli, UniProt P77488)
T1 sequence (P77488 2-620): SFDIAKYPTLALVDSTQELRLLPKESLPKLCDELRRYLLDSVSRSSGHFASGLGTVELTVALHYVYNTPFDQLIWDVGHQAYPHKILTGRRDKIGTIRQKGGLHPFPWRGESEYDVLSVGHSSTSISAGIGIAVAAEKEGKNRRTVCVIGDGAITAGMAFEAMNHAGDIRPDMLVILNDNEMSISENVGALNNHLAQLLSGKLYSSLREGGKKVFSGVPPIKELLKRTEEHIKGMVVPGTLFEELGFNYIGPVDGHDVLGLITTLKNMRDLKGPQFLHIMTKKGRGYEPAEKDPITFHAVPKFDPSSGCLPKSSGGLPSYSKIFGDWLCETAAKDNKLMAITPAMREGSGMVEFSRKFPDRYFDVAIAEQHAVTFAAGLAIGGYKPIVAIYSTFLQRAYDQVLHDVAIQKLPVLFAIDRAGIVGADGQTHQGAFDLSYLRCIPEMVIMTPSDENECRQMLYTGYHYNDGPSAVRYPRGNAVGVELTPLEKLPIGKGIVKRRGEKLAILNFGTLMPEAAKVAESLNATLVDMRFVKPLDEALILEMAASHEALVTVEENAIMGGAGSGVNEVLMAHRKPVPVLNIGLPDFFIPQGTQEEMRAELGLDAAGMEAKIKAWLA
Test: IspC-coupled NADPH consumption at […] nm
Type: biochemical

Compound	Ki [µM]
CCCOP(=O)(O)C(C)=O [compound 3, alkylAP 3]	7.1 ± 0.8
CCCCCCCCOP(=O)(O)C(C)=O [compound 7, octylacetylphosphonate]	1.4 ± 0.2
